According to ChEMBL document CHEMBL1147957, “Synthesis and antitubercular activity of phenothiazines with reduced binding to dopamine and serotonin receptors” (2007):
Converted amounts (≈) assume the structure as drawn. “And” between values parts separate entries of the source, which are not always exact repeats. Identical values can stand only once.

Columns and labels:
[1] = target: T1, 5-hydroxytryptamine receptor 2C (Homo sapiens) (UniProt P28335); assay: Displacement of [3H]mesulergine from 5HT2C receptor at 10 uM
T1 sequence (whole entry): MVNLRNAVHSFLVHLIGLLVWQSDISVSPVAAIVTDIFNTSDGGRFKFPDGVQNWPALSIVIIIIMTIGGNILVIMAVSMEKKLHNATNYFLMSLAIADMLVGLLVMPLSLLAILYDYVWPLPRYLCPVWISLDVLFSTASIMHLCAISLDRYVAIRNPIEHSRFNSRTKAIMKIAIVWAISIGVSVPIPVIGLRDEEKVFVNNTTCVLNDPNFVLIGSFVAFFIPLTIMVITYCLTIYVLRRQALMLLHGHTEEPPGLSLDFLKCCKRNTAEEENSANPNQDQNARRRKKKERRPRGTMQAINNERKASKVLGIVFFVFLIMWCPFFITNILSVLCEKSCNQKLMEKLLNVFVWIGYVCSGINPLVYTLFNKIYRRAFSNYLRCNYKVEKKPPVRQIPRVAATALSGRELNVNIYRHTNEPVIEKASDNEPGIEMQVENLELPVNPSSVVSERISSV

[2] = system: Mycobacterium tuberculosis; assay: Antitubercular activity against Mycobacterium tuberculosis H37Rv by MABA assay; type: functional
[3] = target: D(2) dopamine receptor (Homo sapiens) (UniProt P14416); assay: Displacement of [3H]YM091512 from dopamine D2 receptor at 10 uM
Chain of D(2) dopamine receptor (Homo sapiens) (P14416 whole entry): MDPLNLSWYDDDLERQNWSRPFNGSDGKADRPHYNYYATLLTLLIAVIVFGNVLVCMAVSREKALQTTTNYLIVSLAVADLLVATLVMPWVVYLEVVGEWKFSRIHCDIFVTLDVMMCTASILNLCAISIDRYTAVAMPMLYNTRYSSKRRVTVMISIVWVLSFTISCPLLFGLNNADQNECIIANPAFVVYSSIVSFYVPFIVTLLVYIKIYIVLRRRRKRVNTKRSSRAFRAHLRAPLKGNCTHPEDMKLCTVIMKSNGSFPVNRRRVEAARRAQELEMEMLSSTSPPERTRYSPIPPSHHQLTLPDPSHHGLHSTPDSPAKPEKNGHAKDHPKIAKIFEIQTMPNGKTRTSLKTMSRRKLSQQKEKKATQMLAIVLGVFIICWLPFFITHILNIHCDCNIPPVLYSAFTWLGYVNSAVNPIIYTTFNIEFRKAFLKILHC

[4] = target: T2, 5-hydroxytryptamine receptor 1A (Homo sapiens) (UniProt P08908); assay: Displacement of [3H]8-OH-DPAT from 5HT1A receptor at 10 uM
T2 sequence (whole entry): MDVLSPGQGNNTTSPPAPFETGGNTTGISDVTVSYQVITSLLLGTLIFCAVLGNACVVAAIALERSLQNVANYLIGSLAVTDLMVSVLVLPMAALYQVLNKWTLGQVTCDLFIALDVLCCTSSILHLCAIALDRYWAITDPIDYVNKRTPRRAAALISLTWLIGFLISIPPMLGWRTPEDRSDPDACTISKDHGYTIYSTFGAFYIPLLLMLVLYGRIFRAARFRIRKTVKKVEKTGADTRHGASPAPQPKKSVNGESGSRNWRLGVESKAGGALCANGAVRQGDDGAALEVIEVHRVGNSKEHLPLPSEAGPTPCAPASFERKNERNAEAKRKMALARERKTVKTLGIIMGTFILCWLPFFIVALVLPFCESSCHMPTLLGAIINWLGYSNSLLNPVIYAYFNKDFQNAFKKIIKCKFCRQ

Row | Compound | Activity [1] | MIC [2] [µg/mL] | Activity [3] | Activity [4]
1 | CN1CCCC(CN2c3ccccc3Sc3cc(N4CCOCC4)ccc32)C1 (centres undefined) | 7% | > 2 | 59% | 0%
2 | Cc1ccc2c(c1)Sc1ccccc1N2CC1CCCN(C)C1 (centres undefined) | 26% | 7.2 (≈ 22.2 µM) | 93% | 0%
3 | FC(F)(F)c1ccc2c(c1)N(Cc1ccc(CN3c4ccccc4Sc4ccc(C(F)(F)F)cc43)cc1)c1ccccc1S2 | 0% | 2 (≈ 3.14 µM) | 40% | 0%
4 | FC(F)(F)c1ccc2c(c1)N(Cc1ccc(CNc3cccc(Oc4ccccc4)c3)cc1)c1ccccc1S2 | 0% | > 20 | 26% | 0%
5 | CN1CCCC(CN2c3ccccc3Sc3cc(F)ccc32)C1 (centres undefined) | 89% | 10.8 (≈ 32.9 µM) | 87% | 7%
6 | COc1ccc2c(c1)Sc1ccccc1N2CC1CCCN(C)C1 (centres undefined) | 41% | > 20 | 75% | 0%
7 | FC(F)(F)c1ccc2c(c1)N(CCCN1CCN(c3ncccn3)CC1)c1ccccc1S2 | 85% | 16 (≈ 33.9 µM) | 50% | 94%
8 | CSc1ccc2c(c1)Sc1ccccc1N2CC1CCCN(C)C1 (centres undefined) | – | 11.6 (≈ 32.5 µM) | – | 67%
9 | FC(F)(F)c1ccc2c(c1)N(Cc1ccc(CN3CCN(c4ncccn4)CC3)cc1)c1ccccc1S2 | 0% | > 20 | 72% | 10%
10 | CN1CCCC(CN2c3ccccc3Sc3ccc(C(F)(F)F)cc32)C1 (centres undefined) | 56% | 7.2 (≈ 19 µM) | 87% | 5%
11 | FC(F)(F)c1ccc2c(c1)N(CCCNc1cccc(Oc3ccccc3)c1)c1ccccc1S2 | 5% | > 20 | 0% | 0%
12 | CCN(CC)Cc1ccc(CN2c3ccccc3Sc3ccc(C(F)(F)F)cc32)cc1 | 57% | > 10 | 97% | 23%
13 | CN1CCN(CCCN2c3ccccc3Sc3ccc(C(F)(F)F)cc32)CC1.Cl | – | 6 | – | –
14 | FC(F)(F)c1ccc2c(c1)N(CCCN1c3ccccc3Sc3ccc(C(F)(F)F)cc31)c1ccccc1S2 | 83% | 2.3 (≈ 4 µM) | 48% | 67%
15 | CCN(CC)CCCN1c2ccccc2Sc2ccc(C(F)(F)F)cc21 | 94% | 15 (≈ 39.4 µM) | 100% | 63%
16 | CN1CCN(CCCN2c3ccccc3Sc3ccc(C(F)(F)F)cc32)CC1 [TRIFLUOPERAZINE] | – | 7.6 (≈ 18.7 µM) | – | –
17 | CN1CCCC(CN2c3ccccc3Sc3ccc(-c4ccccc4)cc32)C1 (centres undefined) | 14% | 4.5 (≈ 11.6 µM) | 97% | 1%
18 | FC(F)(F)c1ccc2c(c1)N(Cc1ccc(CNCc3ccccc3)cc1)c1ccccc1S2 | 0% | > 20 | 13% | 0%
19 | CN1CCCC(CN2c3ccccc3Sc3cnccc32)C1 (centres undefined) | – | > 20 | – | –
20 | CN1CCCC(CN2c3ccccc3Sc3ccccc32)C1 (centres undefined) [MEPAZINE] | 29% | 17 (≈ 54.8 µM) | 88% | 0%

Row | Compound | Activity [1] | MIC [2] [µg/mL] | Activity [3] | Activity [4]
21 | CC(CO)NCCCN1c2ccccc2Sc2ccc(C(F)(F)F)cc21 (centres undefined) | 91% | 4.6 (≈ 12 µM) | 100% | 58%
22 | FC(F)(F)c1ccc2c(c1)N(Cc1ccc(CNc3nccs3)cc1)c1ccccc1S2 | 0% | > 10 | 11% | 0%
23 | CN1CCCC(CN2c3ccccc3Sc3cc(Cl)ccc32)C1 (centres undefined) | 67% | 14.3 (≈ 41.5 µM) | 94% | 0%
24 | OC1CCN(Cc2ccc(CN3c4ccccc4Sc4ccc(C(F)(F)F)cc43)cc2)C1 (centres undefined) | 65% | 8.4 (≈ 18.4 µM) | 79% | 0%
25 | CN(CCCN1c2ccccc2Sc2ccc(C(F)(F)F)cc21)Cc1ccccc1 | 68% | > 20 | 99% | 31%
26 | CC1CN(CCCN2c3ccccc3Sc3ccc(C(F)(F)F)cc32)CC(C)O1 (centres undefined) | 30% | > 20 | 99% | 98%
27 | CC(CO)NCc1ccc(CN2c3ccccc3Sc3ccc(C(F)(F)F)cc32)cc1 (centres undefined) | 59% | 6.4 (≈ 14.4 µM) | 93% | 24%
28 | CN(C)CCCN1c2ccccc2Sc2ccc(Cl)cc21.Cl [CHLORPROMAZINE HYDROCHLORIDE] | 86% | 6 | 96% | 44%
29 | OC1CCN(CCCN2c3ccccc3Sc3ccc(C(F)(F)F)cc32)C1 (centres undefined) | 95% | 11 (≈ 27.9 µM) | 74% | 62%
30 | CN1CCN(Cc2ccc(CN3c4ccccc4Sc4ccc(C(F)(F)F)cc43)cc2)CC1 | 0% | 15 (≈ 31.9 µM) | 14% | 0%
31 | FC(F)(F)c1ccc2c(c1)N(CCCNc1ccccn1)c1ccccc1S2 | 93% | 20 (≈ 49.8 µM) | 85% | 45%
32 | CN1CCCC(CN2c3ccccc3Sc3cc(-c4ccccc4)ccc32)C1 (centres undefined) | 58% | 2.1 (≈ 5.43 µM) | 96% | 0%
33 | FC(F)(F)c1ccc2c(c1)N(CCCNc1nccs1)c1ccccc1S2 | 81% | 14 (≈ 34.4 µM) | 95% | 54%
34 | CN1CCCC(CN2c3ccccc3Sc3cccnc32)C1 (centres undefined) | 47% | > 10 | 86% | 19%
35 | FC(F)(F)c1ccc2c(c1)N(Cc1ccc(CNc3ccccn3)cc1)c1ccccc1S2 | 53% | > 10 | 90% | 0%
36 | CN(Cc1ccccc1)Cc1ccc(CN2c3ccccc3Sc3ccc(C(F)(F)F)cc32)cc1 | 0% | > 20 | 66% | 4%
37 | CC1CN(Cc2ccc(CN3c4ccccc4Sc4ccc(C(F)(F)F)cc43)cc2)CC(C)O1 (centres undefined) | 7% | > 20 | 75% | 0%
38 | CN1CCN(CCCN2c3ccccc3Sc3ccc(C(F)(F)F)cc32)CC1 | 91% and 97% | – | 100% and 98% | 76% and 67%
39 | FC(F)(F)c1ccc2c(c1)N(CCCNCc1ccccc1)c1ccccc1S2 | 85% | 4.2 (≈ 10.1 µM) | 97% | 61%
